Source: patent US20260115288A1, “T CELL MANUFACTURING COMPOSITIONS AND METHODS” (BioNTech US Inc., priority 2022, published 2026)

System: antigen specific CD8+ T cells
Assay: Addition of IL-21 to NEO-STIM.RNA cultures
Assay type: cell-based, human
Description: In order to improve the NEO-STIM protocol using RNA, IL-21 was explored as an addition to the protocol.
In order to improve the NEO-STIM protocol using RNA, IL-21 was explored as an addition to the protocol. […] Using IL-21 in NEO-STIM increases central memory phenotype in antigen specific CD8^+ T cells.

IL-21: cytokine added to the NEO-STIM protocol using RNA
effect on expansion of T cells (NEO-STIM process using RNA encoded neoantigenic epitopes): improves expansion of T cells
effect on central memory phenotype in antigen specific CD8+ T cells (NEO-STIM.RNA cultures): increases the central memory phenotype
effect on priming of specific T cells (NEO-STIM.RNA cultures): improves the priming of specific T cells
